Test [1] deals with NF-κB signaling pathway in astrocytes. The test can be described thus: RT Profiler PCR Array, mouse NF-κB Signaling Targets, in astrocytes. The test is classed as cell-based. Particulars: RAC+BGE-105 [250 nM]. How it is done:
To stimulate astrocytes into a reactive state found in aging and neurodegenerative diseases per previous publications (Liddelow et al., 2017; Barbar et al., 2020), a combination of the cytokines TNF-α and IL-1α, and complement factor C1q, were added at 30 ng/mL, 3 ng/mL, and 400 ng/mL, respectively, into astrocyte culture media to make ‘reactive astrocyte cocktail’ (RAC) media. […] Bachem, Cat. #4029110), BAY-11-7082 (50 μM; Abcam, Cat. #ab141228) or equal volume of vehicle (0.01% DMSO in PBS) (hereafter referred to as ‘RAC treatment’). […] Total RNA purity and concentration was assessed using NanoDrop (ThermoFisher). 500 ng of RNA was used for cDNA synthesis using High-Capacity cDNA Reverse Transcription Kit (Fisher Scientific, Cat. #43-749-66) and total volume of cDNA was diluted to a final concentration of 2 ng/μ1. Gene expression was assessed using a RT Profiler PCR Array (Qiagen, Cat. #330231) specific to mouse NF-κB Signaling Targets according to manufacturer's protocol.

The next test has as its system SOD1^G93A mice. The test can be described thus: ICV administration in SOD1^G93A mouse model of ALS. It counts as in vivo. Particulars: ICV via Alzet minipumps, 1 month. How it is done: The study accesses the effects of BGE-105 in a mouse model of ALS. The study establishes pharmacokinetic/pharmacodynamic features of intracerebroventricular (ICV) administration of BGE-105 in wildtype C57BL/6J mice. Multiple doses across multiple timepoints are tested to determine drug characteristics within the central nervous system (CNS). BGE-105 is administered to SOD1^G93A mice using Alzet minipumps connected to ICV cannulas.
Astrocyte reactivity, driven by IL-la/TNFα/C1q-mediated neurotoxicity, contributes to spinal cord motor neuron death and motor dysfunction in mouse models of ALS. […] This study first validates intraventricular administration of BGE-105 into wildtype mice to establish CNS-specific drug properties and guide optimal dose selection. Next, the efficacy of CNS delivery of BGE-105 to minimize motor neuron death, improve motor function, and extend lifespan in the SOD1^G93A mouse model of ALS is tested. For experiments in vivo, BGE-105 are administered to SOD1^G93A mice using Alzet minipumps. Alzet minipumps are implanted at 4 months of age, followed by 1 month of continuous administration of BGE-105.
Analyses of motoric, behavioral, and survival endpoints are measured. Brain, spinal cord, and skeletal muscle are dissected post mortem for histochemical and transcriptomic analyses to determine target engagement and mechanisms of action.
Alzet minipumps connected to intraventricular cannulas are utilized for continuous CNS delivery of BGE-105, akin to previous studies on APJ agonism in the CNS (Zhu et al., 2020. Apelin-36 mediates neuroprotective effects by regulating oxidative stress, autophagy and apoptosis in MPTP-induced Parkinson's disease model mice, Brain Research, Volume 1726, 2020, 146493, ISSN 0006-8993). 4-month-old SOD1^G93A mice (C57BL/6J background; strain #004435, Jackson Laboratory) of both sexes (n=12/group; 6 male, 6 female) are randomized into vehicle or two separate treatment groups before undergoing baseline motor behavior assessments including the open field, grid hang, beam walk, and accelerating rotarod. […]

A further test addresses T1, apelin receptor (Homo sapiens, UniProt P35414).
T1 sequence (P35414 1-380): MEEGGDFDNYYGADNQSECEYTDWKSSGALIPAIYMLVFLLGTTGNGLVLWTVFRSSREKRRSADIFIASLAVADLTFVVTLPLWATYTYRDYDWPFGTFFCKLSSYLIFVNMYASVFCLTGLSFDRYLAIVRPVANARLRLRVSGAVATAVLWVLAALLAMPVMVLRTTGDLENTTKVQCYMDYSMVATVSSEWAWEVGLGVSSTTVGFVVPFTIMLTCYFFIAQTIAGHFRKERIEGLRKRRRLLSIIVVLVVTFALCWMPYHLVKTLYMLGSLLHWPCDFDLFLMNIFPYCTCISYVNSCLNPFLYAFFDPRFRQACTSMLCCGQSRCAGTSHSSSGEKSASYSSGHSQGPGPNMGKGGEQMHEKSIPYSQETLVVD
As to conditions: Ason et al., JCI Insight 2020; cited from earlier work.

Another test concerns 26 month-old mice. The test can be described thus: Quantikine ELISAs for mouse CXCL1 and CXCL13 in plasma of aged mice. It counts as in vivo. As to conditions: 50 mg/kg BID P.O. one week, p<0.05. How it is done:
The mice were handled in accordance with principles and guidelines established by the “Guide for the Care and Use of Laboratory Animals” and overseen by the BioAge Lab's institutional animal care and use committee (IACUC). Mice were housed conventionally in a constant temperature (20-22° C.) and humidity (40%-60%) animal room with a 12/12 h light/dark cycle and free access to food and water. 26 month-old mice were randomized based on the body weight and body condition scores to two groups (vehicle or BGE-105, n=8). 4 month-old female mice were used as an additional control group (vehicle, n=4). Mice were administered P.O. vehicle or BGE-105 at 50 mg/kg (BID) for one week. After completion of dosing, blood samples were collected via retro-orbital bleeding under isoflurane anesthesia into K2-EDTA tubes to prevent coagulation. Mice were euthanized via transcardiac perfusion under isoflurane anesthesia. […]
For quantitative analysis, plasma samples were assessed with Quantikine® enzyme-linked immunosorbent assays (ELISAs) for mouse CXCL1 and CXCL13 (R&D Systems) according to manufacturer's instructions. Optical density of the completed ELISA was imaged using a SpectraMax iD5 (Molecular Devices), sample concentrations were calculated compared to a standard curve, and relative change with age+/−BGE-105 treatment was calculated with young mouse plasma serving as the normalization.

For `COc1cccc(OC)c1-n1c(NS(=O)(=O)[C@@H](C)[C@H](C)c2ncc(C)cn2)nnc1-c1cncc(C)c1` [BGE-105, (2S,3R)—N-(4-(2,6-dimethoxyphenyl)-5-(5-methyl-3-pyridinyl)-4H-1,2,4-triazol-3-yl)-3-(5-methyl-2-pyrimidinyl)-2-butanesulfonamide], in test [1], the “decrease of Cxcl3 expression” value turned out to be 55%, the “increase of Csf3 expression” value came to 16% and the “increase of Il2 expression” value worked out at 184%. In addition, in the test on SOD1^G93A mice, the lifespan result was “extends lifespan”, the motor function entry is on record as “improves motor function” and the motor neuron death result is recorded as “minimizes motor neuron death”. Also, the “activation of the apelin receptor” value on apelin receptor is given as “known to activate”. Moreover, in the test on 26 month-old mice, the “reduction of CXCL1 concentrations in plasma” value came out at 35% and the “reduction of CXCL13 concentrations in plasma” value came to 26%.

Source of the values: patent US20240041878A1, “APELIN RECEPTOR MODULATORS FOR TREATMENT OF A DISORDER OR DISEASE ASSOCIATED WITH BBB PERMEABILITY” (BioAge Labs, Inc., priority 2022, published 2024).
